The values below are quoted from earlier work in patent US12350300B2, “Use of dopamine producing products to increase vaccine efficacy” (Iowa State University Research Foundation, Inc., priority 2021, dated 2025).

One data set deals with mouse colitis. The settings on record: Herak-Perkovic 2001.
The subject of the next data set is longitudinal muscle. The following applies: read-out: EC50, relaxation.
In another data set the test system is circular muscle. The settings on record: read-out: EC50, contractions.

`NCCc1ccc(O)c(O)c1` [dopamine]: the “effect against the development of inflammation” value in the data set with mouse colitis was “protective effect”. Further, the results for the 50% effective concentration (EC50) in the data set on longitudinal muscle and in the data set with circular muscle were 29 µM and 6.3 µM, respectively.

What is called EC50 is the concentration that produces a half-maximal response.
